Data taken from patent publication US20140348857A1, “METHODS OF DIAGNOSIS AND TREATMENT OF ENDOPLASMIC RETICULUM (ER) STRESS-RELATED CONDITIONS” (MASSACHUSETTS INSTITUTE OF TECHNOLOGY, priority 2011, published 2014).
Where a SMILES comes first, the peptide text is derived from it. The star is where a group is joined. Cbz = O=C(OCc1ccccc1)*

Key:
PERK = PERK and eIF2α phosphorylation immunoblot in HeLa cells; type: cell-based, human; settings: control HeLa cells; Brefeldin A 5 μg/ml, Tunicamycin 3 μg/ml
From the text: To determine the effects of (ADP-ribosyl)ation on PERK and IRE1α signaling, GFP-PARP-16, GFP-PARP-16^H152Q Y182A, or GFP alone were over-expressed at similar concentrations, and PERK and IRE1α activation examined using two standard assays; (i) detection of PERK phosphorylation at Thr 981 and phosphorylation of its substrate eIF2α at Ser 51 using phospho-specific antibodies, and (ii) monitoring splicing of the IRE1α substrate XBP-1 mRNA.
To determine if PARP-16 is required for PERK or IRE1α activation, we compared activation in PARP-16 knock-downs to controls. […] Since PERK and IRE1α activity result in the time-dependent activation of downstream transcriptional programs regulated by ATF4 and spliced XBP-1, respectively, we analyzed PERK and IRE1α signaling every 4 hours over a 12-hour period in PARP-16 knock-downs and controls treated with Tunicamycin. Components of each pathway were analyzed via immunoblot or RT-qPCR analysis. While IRE1α activation, detected by phosphorylation of IRE1α, occurred 4 hours post-treatment in controls, such phosphorylation was barely detectable in PARP-16 knock-downs at any time (FIG. 7C, left). […]
Immunofluorescence analysis was performed as described in Leung et al., Mol. Cell 42: 489-499, 2011. […] Fluorescence, biochemical protease protection assays and membrane extraction assays were performed as described in Schreiber et al., Nat. […]

ERAD machinery = experiment: ERAD activity assay, CD3δ-YFP clearance by cycloheximide chase; type: cell-based, human; settings: MG132 10 μM
From the text: While our data strongly point to direct effects of PARP-16 on PERK and IRE1α signaling, compromised ERAD (ER-associated degradation) and/or chaperone capacities of the ER in PARP-16 knock-downs could also affect UPR activation. ERAD activity in PARP-16 knock-downs was examined by measuring clearance of CD3δ-YFP, a model substrate of ERAD machinery. CD3δ-YFP degradation kinetics were similar in PARP-16 knock-downs and controls as assayed by cycloheximide chase. […] The protein-folding capacity of the ER in PARP-16 knock-downs appear to be similar to controls as the protein concentrations of ER chaperones BiP and Calnexin, and disulfide isomerases PDI and ERp57, were similar (FIG. 9C).
ROS was evaluated using a cell permeant […] derivative of fluorescein (CM-H2DCFDA, Invitrogen), following the manufacturer's protocol (Invitrogen). […] The fluorescence intensity of oxidized ROS probe was measured using a microplate reader (Tecan). […] The ratiometric fluorescence at 340 nm/380 nm was measured every 2 min for 20 min, using a microplate reader (Tecan). […] Total RNA was extracted using RNeasy kits and QIAshredder (Qiagen), and cDNA was amplified using Quantitect reverse transcription kit (Qiagen). RT-qPCR was performed with Quantitect SYBR Green PCR kit (Qiagen), using a LightCycler 480 (Roche). mRNA levels were normalized against GAPDH mRNA.

| Compound | phosphorylation of PERK and eIF2α (PERK) | CD3δ-YFP degradation (ERAD machinery) |
| --- | --- | --- |
| C[C@H]1CCC/C=C/[C@@H]2C[C@H](O)C[C@H]2[C@H](O)/C=C/C(=O)O1 [Brefeldin A] | robust phosphorylation of PERK and eIF2α | – |
| CC(C)C[C@@H](C=O)NC(=O)[C@H](CC(C)C)NC(=O)[C@H](CC(C)C)NC(=O)OCc1ccccc1 [MG132] (Cbz-Leu-Leu-Leu-aldehyde) | – | rescued degradation |
| Tunicamycin | robust phosphorylation of PERK and eIF2α | – |
